Key:
Test in all cases: relative viability (nuclei count vs DMSO), 5 days (fraction); higher = more cells survive
Calu-6 = test system: Calu-6
How it was run: (§1)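 Lung cancer cell lines in 1536-well plates got either a single drug or a fixed anchor-drug dose together with five library-drug doses (not always all listed) in √10 steps, by pin tool, on the day after seeding. Nuclei were counted after 5 days, and relative viability is the treated-to-vehicle ratio of nuclei counts. Values are medians of duplicate plates.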

EBC-1 = test system: EBC-1
How it was run: as §1

IA-LM = test system: IA-LM
How it was run: as §1

NCI-H1299 = test system: NCI-H1299
How it was run: as §1

NCI-H1703 = test system: NCI-H1703
How it was run: as §1

NCI-H596 = test system: NCI-H596
How it was run: as §1

NCI-H1648 = test system: NCI-H1648
How it was run: as §1

A549 = test system: A549
How it was run: as §1

SMILES	relative viability (IA-LM; first compound 0.04 µM)	relative viability (IA-LM; first compound 0.1265 µM)	relative viability (IA-LM; first compound 0.4 µM)	relative viability (IA-LM; first compound 1.265 µM)	relative viability (IA-LM; first compound 4 µM)	relative viability (NCI-H596; first compound 0.04 µM)	relative viability (NCI-H596; first compound 0.1265 µM)	relative viability (NCI-H596; first compound 0.4 µM)	relative viability (NCI-H596; first compound 1.265 µM)	relative viability (NCI-H596; first compound 4 µM)	relative viability (NCI-H1648; first compound 0.04 µM)	relative viability (NCI-H1648; first compound 0.1265 µM)	relative viability (NCI-H1648; first compound 0.4 µM)	relative viability (NCI-H1648; first compound 1.265 µM)	relative viability (NCI-H1648; first compound 4 µM)	other results
Clc1ccc(Nc2nnc(Cc3ccncc3)c3ccccc23)cc1 [Vatalanib] + CC(C)C[C@H](NC(=O)[C@H](Cc1ccccc1)NC(=O)c1cnccn1)B(O)O [Bortezomib] (partner 0.002 µM)	0.963	0.955	0.91	0.763	0.871	1.2	1	1.01	1.11	1.01	–	–	–	–	–	relative viability (Calu-6; first compound 0.04 µM): 1.07; relative viability (Calu-6; first compound 0.1265 µM): 0.991; relative viability (Calu-6; first compound 0.4 µM): 1.18; relative viability (Calu-6; first compound 1.265 µM): 0.911; relative viability (Calu-6; first compound 4 µM): 1.1; relative viability (EBC-1; first compound 0.04 µM): 0.489; relative viability (EBC-1; first compound 0.1265 µM): 0.498; relative viability (EBC-1; first compound 0.4 µM): 0.807; relative viability (EBC-1; first compound 1.265 µM): 0.519; relative viability (EBC-1; first compound 4 µM): 0.524; relative viability (NCI-H1299; first compound 0.04 µM): 1.02; relative viability (NCI-H1299; first compound 0.1265 µM): 1.06; relative viability (NCI-H1299; first compound 0.4 µM): 1; relative viability (NCI-H1299; first compound 1.265 µM): 1.04; relative viability (NCI-H1299; first compound 4 µM): 1.02; relative viability (NCI-H1703; first compound 0.04 µM): 0.464; relative viability (NCI-H1703; first compound 0.4 µM): 0.558; relative viability (NCI-H1703; first compound 1.265 µM): 0.237; relative viability (NCI-H1703; first compound 4 µM): 0.21
COc1cc(N2CCC(C(N)=O)CC2)ccc1Nc1nc(N)c(Cl)c(Nc2ccccc2S(=O)(=O)C(C)C)n1 [HG-5-88-01] + O=C(CCCCCCC(=O)Nc1ccccc1)NO [Vorinostat] (partner 1 µM)	1.03	1.01	0.776	0.825	0.899	0.604	0.597	0.641	0.571	0.532	0.616	0.307	0.626	0.308	0.301	–
CC(C)Oc1cc(Nc2nc(N[C@@H](C)c3ccc(F)cn3)ncc2Cl)n[nH]1 [AZ23] + Nc1ncn([C@H]2C[C@H](O)[C@@H](CO)O2)c(=O)n1 [Decitabine] (partner 2 µM)	–	–	–	–	–	–	–	–	–	–	–	–	–	–	–	relative viability (A549; first compound 0.01 µM): 0.3; relative viability (A549; first compound 0.03162 µM): 0.325; relative viability (A549; first compound 0.3162 µM): 0.281; relative viability (NCI-H1648; first compound 0.01 µM): 0.546; relative viability (NCI-H1648; first compound 0.03162 µM): 0.534; relative viability (NCI-H1648; first compound 0.3162 µM): 0.509; relative viability (NCI-H596; first compound 0.01 µM): 1.17; relative viability (NCI-H596; first compound 0.03162 µM): 1.07; relative viability (NCI-H596; first compound 0.3162 µM): 0.955
Clc1ccc(Nc2nnc(Cc3ccncc3)c3ccccc23)cc1 [Vatalanib] + O=C(CCCCCCC(=O)Nc1ccccc1)NO [Vorinostat] (partner 1 µM)	0.952	1.24	0.895	0.99	0.976	0.603	0.542	0.672	0.583	0.608	0.32	0.644	0.562	0.42	0.444	–

From the supplement of paper PMC10307832
